From ChEMBL document CHEMBL3430912, “GSK Tres Cantos Anti-Kinetoplastid Screening (TCAKS) Data”
pIC50: −log10 of the molar value.

Columns and labels:
[1] = test system: Trypanosoma cruzi; experiment: GSK_TCAKS: pIC50 Trypanosoma cruzi viability assay using beta-GAL activity. This assay was run at single shot at 5uM compound concentration per well. The biological reagents consisted of NIH-3T3 host cells and trypomastigotes parasitic cells; both cell types were set to a 3.3 * 10^5 cells/mL dilution in assay DMEM by means of a CASY cell counter device using a 60um capillary. 6 uL of the mixture were dispensed per well (about 1 * 10^3 host-cells and 1 * 10^3 parasites) with a Multidrop Combi dispenser. […] In all wells, the percentage of DMSO never exceeded 0.5%. Plates incubated for four days at 37C, 5% CO2. The substrate used for the assay fluorescence intensity (FLINT) readout was resorufin-beta-D-galactopiranoside (Sigma-Aldrich) at 5uM per well. It was diluted in PBS supplemented with the soft detergent Igepal (Fluka).; format: functional, organism-based, Mus musculus; conditions: Tulahuen, NIH3T3
[2] = test system: Trypanosoma cruzi; experiment: (§1) GSK_TCAKS: pIC50 Trypanosoma cruzi Imaging: Infected Cells. […] Cells were then washed once with PBS before infection. T. cruzi trypomastigotes, collected at days 5 to 8 after infection from LLC-MK2 parasite infected cultures, were allowed to swim out for 4h at 37C from a centrifuged pellet (2,500 rpm/10 min/room temperature). Trypomastigotes were then collected and counted in a CASY Cell Counter. Trypomastigotes, in supplemented DMEM, were added to H9c2 cultures in a multiplicity of infection of 1 and incubated for 18 h. Cells were washed once with PBS before incubation of the infected H9c2 monolayer with trypsin (Life-Technologies) to detach cells from the flask. Cells were counted in a CASY Cell Counter using a 150 um capillary and their density set at 5 * 10^4 cells per mL in supplemented assay DMEM. Infected H9c2 were dispensed into 384-well poly-lysine coated assay plates at 50uL per well using a Multidrop Combi dispenser. After seeding them, the plates were incubated at 37C, 5% CO2 for 72h. Cultures were then fixed and stained by addition of 50 uL of a solution containing 8% formaldehyde and 4 uM DRAQ5 DNA dye (BioStatus, UK) per well. […] Five images were collected per well for reliable statistical analysis. Automated image analysis was performed with a script developed on Acapella High Content Imaging and Analysis Software (PerkinElmer). Output: percentage of infected cells per well as a second infection marker.; format: functional, organism-based, Rattus norvegicus; conditions: H9c2, 4 h
[3] = test system: Trypanosoma cruzi; experiment: GSK_TCAKS: pIC50 Trypanosoma cruzi Imaging: Amastigotes/Cell. […] Cells were then washed once with PBS before infection. T. cruzi trypomastigotes, collected at days 5 to 8 after infection from LLC-MK2 parasite infected cultures, were allowed to swim out for 4h at 37C from a centrifuged pellet (2,500 rpm/10 min/room temperature). Trypomastigotes were then collected and counted in a CASY Cell Counter. Trypomastigotes, in supplemented DMEM, were added to H9c2 cultures in a multiplicity of infection of 1 and incubated for 18 h. Cells were washed once with PBS before incubation of the infected H9c2 monolayer with trypsin (Life-Technologies) to detach cells from the flask. Cells were counted in a CASY Cell Counter using a 150 um capillary and their density set at 5 * 10^4 cells per mL in supplemented assay DMEM. Infected H9c2 were dispensed into 384-well poly-lysine coated assay plates at 50uL per well using a Multidrop Combi dispenser. After seeding them, the plates were incubated at 37C, 5% CO2 for 72h. Cultures were then fixed and stained by addition of 50 uL of a solution containing 8% formaldehyde and 4 uM DRAQ5 DNA dye (BioStatus, UK) per well. […] Five images were collected per well for reliable statistical analysis. Automated image analysis was performed with a script developed on Acapella High Content Imaging and Analysis Software (PerkinElmer). Output: number of amastigotes per cell as infection level measurement.; format: functional, organism-based, Rattus norvegicus; conditions: H9c2, 4 h
[4] = test system: Trypanosoma cruzi; experiment: as §1, with “H2C9” for “Trypanosoma cruzi”, “H9c2 Host Cardiomyocytes.” for “Infected Cells.”, “Number” for “percentage”, “H9c2 Host Cardiomyocytes nuclei to determine drug-related cytotoxicity.” for “infected cells per well as a second infection marker.”; format: functional, organism-based, Rattus norvegicus; conditions: H9c2, 4 h
[5] = test system: Leishmania donovani; experiment: GSK_TCAKS: pIC50 Leishmania donovani viability assay using fluorescence intensity. Assay plates (1536-well) were prepared by adding 30nL per well of compound. For single shot assay, the final compound concentration was 5uM. […] Briefly, eGFP LdBOB axenic amastigotes were harvested, fixed and counted in a CASY cell counter (Roche-Applied Science). A final concentration of 1.5 * 10^5 cells per well were prepared in amastigote media containing 500 U/mL penicillin/streptomycin (Invitrogen) and 6uL was dispensed to each experimental well using a Multidrop Combi dispenser (Thermo Scientific). 6uL of assay media was dispensed to control columns used as reference for 100% compound response. Following incubation for 72 h at 37C, 5% CO2, 2 uL of resazurin was added to each well at a final concentration of 0.5 mM in phosphate buffered saline (PBS) with IGEPAL (Sigma-Aldrich), 0.05% (v/v).; format: functional, organism-based
[6] = test system: Leishmania donovani; experiment: GSK_TCAKS: pIC50 Leishmania donovani Imaging: Infected Macrophages. Assay plates (384-well) were prepared by adding 250nL of compound to each well. For single shot assay, the final compound concentration was 5 uM. […] Automated image analysis was performed with a script developed on Acapella High Content Imaging and Analysis Software (PerkinElmer). Output: Percent of infected macrophage cells were reported for each well.; format: functional, organism-based, Homo sapiens; conditions: THP-1
[7] = test system: Leishmania donovani; experiment: GSK_TCAKS: pIC50 Leishmania donovani Imaging: Amastigotes/Macrophages. Assay plates (384-well) were prepared by adding 250nL of compound to each well. For single shot assay, the final compound concentration was 5 uM. […] Automated image analysis was performed with a script developed on Acapella High Content Imaging and Analysis Software (PerkinElmer). Output: Average number of amastigotes per macrophage cell were reported for each well.; format: functional, organism-based, Homo sapiens; conditions: THP-1
[8] = test system: Leishmania donovani; experiment: GSK_TCAKS: pIC50 Leishmania donovani Imaging: THP-1 Host Macrophages. Assay plates (384-well) were prepared by adding 250nL of compound to each well. For single shot assay, the final compound concentration was 5 uM. […] Automated image analysis was performed with a script developed on Acapella High Content Imaging and Analysis Software (PerkinElmer). Output: THP-1 cell count were reported for each well.; format: functional, organism-based, Homo sapiens
[9] = test system: Trypanosoma brucei brucei; experiment: GSK_TCAKS: pIC50 Trypanosoma brucei viability assay using fluorescence intensity. Assay plates (1536-well) were prepared by dispensing 25nL of compound solution per well using an Echo acoustic dispenser (Labcyte).; format: functional, organism-based; conditions: Lister 427, 2 h
[10] = test system: Trypanosoma brucei brucei; experiment: GSK_TCAKS: pIC50 Trypanosoma brucei viability assay using luminiscence. Assay plates (1536-well) were prepared. T. brucei cultures were harvested and counted in a CASY cell counter. A parasite suspension was prepared at a final concentration of 5 * 10^4 cells/mL in complete HMI9 medium and 6uL was dispensed to all wells containing compounds using a Multidrop Combi dispenser. 6uL of HMI9 media with 0.4% DMSO were dispensed to control columns. Plates were incubated for 24 h at 37C, 5% CO2 then tempered for 10 min at room temperature. ATP content was quantified by adding 4 uL of CellTiter-Glo Reagent (Promega) according to the manufacturer's instructions. Luminescence was measured using a ViewLux.; format: functional, organism-based; conditions: Lister 427, CASY
[11] = GSK_TCAKS: pIC50 HepG2 human cell line viability assay using luminiscence. […] Seeding density was checked to ensure that new mono-layers were not more than 50% confluent at the time of harvesting. Cell suspension was added to 500 mL of the same medium at a final density of 1.2 * 10^5 cells/mL. This cell suspension was dispensed (25 uL, 3000 cells per well) into 384-well clear-bottom plates using a Multidrop Combi dispenser. Prior to addition of the cell suspension, the screening compounds (250 nL) were pre-dispensed into the plates with an Echo liquid handler. Plates were incubated for 48 h at 37C, 5% CO2. After incubation, plates equilibrated at room temperature for 30 min before proceeding to develop the luminescent signal. The signal developer, CellTiter-Glo Reagent, was allowed to equilibrate at room temperature for 30 min and added to the plates (25uL per well) using a Multidrop Combi dispenser. Plates were left for 10 min at room temperature for stabilization and then read using a ViewLux.; format: toxicity, cell-based
[12] = molecular target: Sterol 14-alpha demethylase (Trypanosoma cruzi (strain CL Brener), UniProt Q7Z1V1); experiment: GSK_TCAKS: pIC50 CYP51 from Trypanosoma cruzi.; format: functional
Chain of Sterol 14-alpha demethylase (Q7Z1V1 whole entry): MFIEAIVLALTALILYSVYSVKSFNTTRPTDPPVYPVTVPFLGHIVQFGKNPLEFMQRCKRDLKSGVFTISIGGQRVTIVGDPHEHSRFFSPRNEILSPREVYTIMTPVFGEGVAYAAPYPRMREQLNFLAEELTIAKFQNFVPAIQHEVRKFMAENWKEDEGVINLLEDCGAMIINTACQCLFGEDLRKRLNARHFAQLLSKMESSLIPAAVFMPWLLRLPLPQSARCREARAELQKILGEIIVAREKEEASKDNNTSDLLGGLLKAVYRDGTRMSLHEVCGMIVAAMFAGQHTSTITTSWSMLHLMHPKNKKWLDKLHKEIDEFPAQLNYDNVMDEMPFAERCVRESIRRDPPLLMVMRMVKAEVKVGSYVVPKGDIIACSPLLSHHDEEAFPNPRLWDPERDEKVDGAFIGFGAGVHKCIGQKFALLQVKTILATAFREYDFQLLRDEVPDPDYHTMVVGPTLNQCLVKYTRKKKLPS

SMILES | pIC50 [1] | pIC50 [2] | pIC50 [3] | pIC50 [4] | pIC50 [5] | pIC50 [6] | pIC50 [7] | pIC50 [8] | pIC50 [9] | pIC50 [10] | IC50 at 48 h [11] | pIC50 [12]
Cc1ccccc1CNc1cc(C2CC2)nc(-c2nccn2C)n1 | 6.10 | 6.10 | 6.10 | 6.10 | 5.80 | 6.20 | 6.20 | 5.00 | 5.60 | 5.80 | 15.8 µM | 4.80
COCc1cc(Nc2ccccc2)nc(-c2ccccn2)n1 | 5.30 | 4.60 | 4.90 | 5.40 | 5.10 | 5.10 | 5.30 | < 4.30 | < 4.40 | < 4.40 | 100 µM | < 4.00
CNc1nc(C)nc(N2CCc3cc(C(=O)NCc4ccc(-c5cc[nH]n5)cc4Cl)ccc32)n1 | < 4.30 | < 4.30 | < 4.30 | 4.70 | 5.60 | 6.50 | 6.40 | < 4.30 | 4.90 | 5.00 | > 100 µM | 5.30
CCC(=O)N1N=C(c2ccc3c(c2)CCCC3)Sc2c1ncn2C(=O)CC | 5.20 | 4.70 | 4.90 | < 4.30 | 4.60 | 5.50 | 5.60 | < 4.30 | 4.80 | 4.70 | > 100 µM | < 4.00
COc1cc(OC)cc(C(NS(=O)(=O)c2ccc(Cl)c(C(F)(F)F)c2)c2nccn2C)c1 (configuration not stated) | 5.40 | 5.20 | 5.50 | 5.00 | 5.00 | 5.20 | 5.30 | < 4.30 | 5.10 | 5.10 | > 100 µM | 4.50
O=C(NC1CCN(C2Cc3ccc(NS(=O)(=O)c4cc(F)cc(F)c4)cc3C2)CC1)C1CC1 (configuration not stated) | < 4.30 | < 4.30 | < 4.30 | < 4.30 | 4.60 | < 4.30 | 4.90 | 4.90 | 6.00 | 6.10 | > 100 µM | 4.30
CCOc1ccc(N(C)S(=O)(=O)c2ccc3[nH]cc(C(=O)NC4CCCC4)c(=O)c3c2)cc1 | 5.10 | < 4.30 | 5.20 | < 4.30 | < 4.30 | 4.50 | 4.50 | 4.60 | 6.60 | 6.30 | 50.1 µM | 5.20
COc1ccc(OC)c2c(=O)c(Cc3ccccc3)c(C)[nH]c12 | 6.65 | 6.30 | 6.90 | < 4.30 | 6.40 | 5.40 | 5.60 | < 4.30 | < 4.40 | < 4.40 | > 100 µM | < 4.00
COc1ccc2nccc(NC(=O)C3(OC)CCN(CC(O)c4ccc5c(c4)OCCO5)CC3)c2n1 (configuration not stated) | 6.60 | 6.50 | 6.90 | 4.80 | 5.00 | 4.70 | 5.20 | 4.60 | 6.40 | 6.30 | 39.8 µM | 6.00
Cc1cc(Nc2cc(C3CC3)[nH]n2)nc(N2CCCC2)n1 | 7.10 | 7.00 | 7.10 | 6.60 | 6.10 | 6.80 | 7.30 | 6.90 | 7.30 | 7.20 | 31.6 µM | < 4.00
O=C(Nc1nc2ccccc2[nH]1)c1ccc2[nH]cnc2c1 | 4.60 | < 4.30 | 4.30 | < 4.30 | 5.60 | 5.30 | 5.50 | < 4.30 | < 4.40 | < 4.40 | 50.1 µM | 5.30
